The structures appear in SMILES notation.

As usually defined, the inhibition is the share of the control response that was lost under treatment. High values mean a response far below the control, low ones a response near the control.

One series relates to Caco-2 cells. The experiment in a line: Glucuronidation of silybin in Caco-2 cells (LC-MS peak area of silybin glucuronides). The following applies: silybin 10 μM, test compound 20 μM co-incubation. The series is classed as in vitro ADME, human. As for the experimental part:
The analysis of silybin and total concentrations of glucuronides and sulfates was performed on an Agilent HP 1100 LC-MS system (Agilent, CA). A Waters ACQUITY UPLC® BEH C18 Column (1.7 μm, 2.1×50 mm, Waters Corp., Ireland) was used for detection with a C18 Security Guard cartridge (4×2.0 mm i.d., Phenomenex, Torrance, Calif.). Silybin A and silybin B were well separated using optimized gradient elution with methanol (mobile phase B) and 0.1% formic acid in water (mobile phase A) as mobile phase at a flow rate of 0.4 ml/min with a run time of 10 minutes. The gradient employed was as follows (time: mobile phase B percentage): 0 min: 25%, 6 minutes: 40%, 6.5 minutes: 25%.
MS parameters including: capillary voltage, −4000 V; nebulizer pressure, 40 pounds per square inch (psi); drying gas, 9 liters per minute (L/min); drying gas temperature, 325° C.; fragment voltage, 35 volts; dwell time, 200 milliseconds (ms); scan mode, selective ion monitoring (SIM) with [M-H]− for silybin (mass-to-charge ratio (m/z) 481), mono-glucuronide (m/z 657), and NG (m/z 271), respectively. LC-MS data were obtained by Agilent ChemStation Software.
Silybin is primarily metabolized to glucuronide (about 55%) and sulfate (about 28%) conjugates in human plasma after oral administration. To examine whether the co-incubation of flavonoids could affect the conjugation of silybin, the peak area of silybin glucuronides was measured by LC-MS (FIG. 6). Identification of glucuronides in the samples was based on their MS in-source fragmentations (m/z 657).

Series [1] has as its system CCl4-induced acute liver injury. The experiment in a line: CCl4-induced acute liver injury in rats. The class given is in vivo, rat. As for the experimental part: Male SD rats were randomly divided into six groups: 1) Group I orally received blank vehicle for 7 days, and intraperitoneally (i.p.) injected with olive oil (2 ml/kg body weight) on day 7; 2) Group II orally received blank vehicle for 7 days, and injected with CCl4-olive oil mixture (40% CCl4, i.p., 2 ml/kg body weight) on day 7; 3) Group III was treated with silybin (100 mg/kg bodyweight, per os (p.o.) for 7 days, and injected with CCl4-olive oil mixture (40% CCl4, i.p., 2 ml/kg body weight) on day 7, 2 hour after administration of silybin; 4) Group IV was treated with silybin (100 mg/kg bodyweight, p.o.) and tangeretin (100 mg/kg bodyweight, p.o.) mixture for 7 days, and injected with CCl4-olive oil mixture (40% CCl4, i.p., 2 ml/kg body weight) on day 7, 2 hour after administration of the mixture; 5) Group V was treated with silybin (50 mg/kg bodyweight, p.o.) and tangeretin (50 mg/kg bodyweight, p.o.) mixture for 7 days, and injected with CCl4-olive oil mixture (40% CCl4, i.p., 2 ml/kg body weight) on day 7, 2 hour after administration of the mixture; 6) Group VI was treated with tangeretin (100 mg/kg bodyweight, p.o.) for 7 days, and injected with CCl4-olive oil mixture (40%, i.p., 2 ml/kg body weight) on day 7, 2 hour after administration of tangeretin. Model and control group were daily treated orally with blank solvent (35% PEG400: 15% Cremophor EL: 5% ethanol: 45% saline).
24 hours after the CCl4-induced toxic liver injury was initiated, rats were sacrificed under ether anesthesia. Blood was collected from the abdominal aorta for biochemical estimations. The liver was immediately removed and weighed. A large portion of the liver was snap-frozen in the liquid nitrogen and the remaining tissue was fixed in 10% buffer formalin, processed and embedded in paraffin for histological examination after hematoxylin and eosin (H&E) staining. Steatohepatitis was evaluated by level of alanine aminotransferase (ALT), aspartate aminotransferase (AST), triglycerides, total cholesterol and superoxide dismutase (SOD) using commercial kits (Nanjing Jiancheng Bioengineering Institute, Nanjing, China) according to manufacturer's instructions and histological assessment and scoring according to standardized criteria by a pathologist blind to the study.

The next series can be described thus: in vitro. The series is classed as in vitro ADME, rat. The following applies: male, Sprague Dawley, rat. As for the experimental part: Sandwich-cultured rat hepatocytes (SCHs) were established according to previously described methods with minor modifications. Primary rat hepatocytes were isolated from male Sprague Dawley® (SD) rats (220-270 g) using a collagenase perfusion as described previously and plated at a density of 7.4×10^5 cells/2 ml/well onto six-well BioCoat plates. Approximately 24 hours later, hepatocytes were overlaid with 2 ml of 0.25 mg/ml BD Matrigel basement membrane matrix in Dulbecco's modified Eagle medium (DMEM) containing 1% volume by volume percentage (v/v) insulin/transferrin/selenium culture supplement, […] dexamethasone, 2 mM L-glutamine, 1% (v/v) minimum essential medium nonessential amino acids, 1% penicillin-streptomycin. Hepatocytes were cultured for 4 days to allow extensive formation of canalicular networks between cells before experimentation and the medium was changed daily.
Sandwich-cultured hepatocytes (SCHs) were pre-incubated in 2 milliliters (ml) of warm Hank's Balanced Salt Solution (HBSS) with or without Ca^2+ at 37° C. for 15 minutes; the tight junctions of the bile canaliculi open temporally after exposure to HBSS without Ca^2+. Subsequently, cells were incubated at 37° C. for 20 minutes with 1.5 ml of standard HBSS containing silybin (10 μM), or MK 571 (50 μM) as a positive control, or baicalein (25, 15.8, 5, 1.58, 0.5, 0.16 μM), or tangeretin (25, 15.8, 5, 1.58, 0.5 μM). After 20 min, cells were washed three times with ice-cold standard HBSS. The cell samples were lysed by sonication in 1 ml of water for 5 seconds with the ultrasonic cell disruption system (SONICS & […], INC., Newtown, Conn., USA). Conjugated silybin and unconjugated (free) silybin were quantified by high-performance liquid chromatography-tandem mass spectrometry (HPLC-MS/MS). Transport function was normalized to the protein content of the hepatocytes which was evaluated by bicinchoninic acid (BCA) protein assay (Pierce Chemical, Rockford, Ill.). The biliary excretion index (BEI; %) and in vitro biliary clearance (Clbiliary; ml/min/kg) were calculated by using B-CLEAR technology (Qualyst, Inc., Research Triangle Park, N.C.) based on the following equations: […]

Regarding `O=c1cc(-c2ccccc2)oc2cc(O)c(O)c(O)c12` [baicalein], the “effect on glucuronide metabolites / glucuronide conjugation of silybin” value with Caco-2 cells is “almost undetected”.

For the compound `COc1cc(C2Oc3cc([C@H]4Oc5cc(O)cc(O)c5C(=O)[C@@H]4O)ccc3OC2CO)ccc1O` (stereo partly shown) [silybin], the “serum TG and TC levels” value in series [1] (100 mg/kg of silybin, p<0.01) was “attenuated increases”. The “CCl4-induced macroscopic and histopathological liver changes (H&E)” value in series [1] (7 days oral pre-treatment, 24 hours after CCl4) is given as “less prominent”. Also, the “CCl4-induced increase of liver weight and liver to body weight ratio” value in series [1] (7 days oral pre-treatment, 24 hours after CCl4, p<0.05) is on record as “negated”. For the same compound, in series [1] (silybin 100 mg/kg for seven consecutive days), the “CCl4-induced increase of serum activity of ALT and AST” value is recorded as “significantly prevented”.

Regarding `COc1ccc(-c2cc(=O)c3c(OC)c(OC)c(OC)c(OC)c3o2)cc1` [tangeretin], the “effect on glucuronide metabolites / glucuronide conjugation of silybin” value in the series on Caco-2 cells is on record as “did not significantly inhibit the conjugation”. The compound further displayed an inhibition at 20 min in the series “in vitro” of around 90%.

Values taken from patent publication US10265298B2, “Method of increasing the bioavailability of silybin” (Macau University of Science and Technology, priority 2017, dated 2019).
